This passage reports IC50 results from patent US20240383875A1, “Benzimidazole Pyridine Derivatives” (Hoffmann-La Roche Inc., priority 2022, published 2024).

pIC50: −log10 of the molar value.

What all share (type): biochemical
Experiment [1] addresses SIK1 (Homo sapiens, UniProt P57059). Briefly: Enzymatic activity assay SIK1, RapidFire mass spectrometry (phosphorylation of CHK-peptide). As to conditions: RapidFire MS, inhibition of SIK1; read-out: SIK1 RF IC50. In a few lines: (§1)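 Compounds (12-point, 3-fold, generally 30 μM to 170 pM) were pre-incubated 30 min at ambient temperature with SIK1 (5 nM), SIK2 (0.5 nM) or SIK3 (1.5 nM) in HEPES pH 7.0/magnesium acetate buffer. CHK-peptide (10 μM solution) and ATP (100 μM solution) were then added for 45 min before formic acid quench.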

The target in experiment [2] is SIK3 (Homo sapiens, UniProt Q9Y2K2). Briefly: Enzymatic activity assay SIK3, RapidFire mass spectrometry (phosphorylation of CHK-peptide). As to conditions: RapidFire MS, inhibition of SIK3; read-out: SIK3 RF IC50. Summed up: as §1
Experiment [3] has as its target SIK2 (Homo sapiens, UniProt Q9H0K1). Briefly: Enzymatic activity assay SIK2, RapidFire mass spectrometry (phosphorylation of CHK-peptide). As to conditions: RapidFire MS, inhibition of SIK2; read-out: SIK2 RF IC50. Summed up: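 SIK2 (0.5 nM) in pH 7.0 HEPES buffer with 10 mM Mg acetate phosphorylates CHK-peptide (10 μM solution) with 100 μM ATP solution, 45 min ambient, then formic acid quench.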

SIK1, sequence (P57059 whole entry): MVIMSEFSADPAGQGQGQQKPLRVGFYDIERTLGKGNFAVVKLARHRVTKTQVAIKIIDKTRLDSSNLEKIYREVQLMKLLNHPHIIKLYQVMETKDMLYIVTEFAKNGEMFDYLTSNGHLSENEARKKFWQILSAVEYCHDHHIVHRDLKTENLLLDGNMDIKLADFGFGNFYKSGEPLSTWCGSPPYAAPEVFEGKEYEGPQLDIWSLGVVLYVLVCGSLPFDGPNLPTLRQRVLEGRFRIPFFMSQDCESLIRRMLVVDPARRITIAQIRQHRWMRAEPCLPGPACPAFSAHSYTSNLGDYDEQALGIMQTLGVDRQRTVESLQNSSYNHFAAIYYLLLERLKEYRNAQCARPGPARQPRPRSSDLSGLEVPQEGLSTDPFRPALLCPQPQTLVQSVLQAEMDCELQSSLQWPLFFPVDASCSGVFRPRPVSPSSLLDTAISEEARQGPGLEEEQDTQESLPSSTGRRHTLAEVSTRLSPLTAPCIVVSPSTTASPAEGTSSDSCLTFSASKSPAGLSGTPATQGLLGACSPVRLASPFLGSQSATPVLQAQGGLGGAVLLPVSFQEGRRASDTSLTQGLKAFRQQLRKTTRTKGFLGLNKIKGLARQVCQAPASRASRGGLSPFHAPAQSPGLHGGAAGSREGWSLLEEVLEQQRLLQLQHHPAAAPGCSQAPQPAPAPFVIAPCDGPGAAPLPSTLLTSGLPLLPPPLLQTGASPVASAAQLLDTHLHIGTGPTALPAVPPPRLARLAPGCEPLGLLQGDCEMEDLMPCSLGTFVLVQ
SIK3, sequence (Q9Y2K2 whole entry): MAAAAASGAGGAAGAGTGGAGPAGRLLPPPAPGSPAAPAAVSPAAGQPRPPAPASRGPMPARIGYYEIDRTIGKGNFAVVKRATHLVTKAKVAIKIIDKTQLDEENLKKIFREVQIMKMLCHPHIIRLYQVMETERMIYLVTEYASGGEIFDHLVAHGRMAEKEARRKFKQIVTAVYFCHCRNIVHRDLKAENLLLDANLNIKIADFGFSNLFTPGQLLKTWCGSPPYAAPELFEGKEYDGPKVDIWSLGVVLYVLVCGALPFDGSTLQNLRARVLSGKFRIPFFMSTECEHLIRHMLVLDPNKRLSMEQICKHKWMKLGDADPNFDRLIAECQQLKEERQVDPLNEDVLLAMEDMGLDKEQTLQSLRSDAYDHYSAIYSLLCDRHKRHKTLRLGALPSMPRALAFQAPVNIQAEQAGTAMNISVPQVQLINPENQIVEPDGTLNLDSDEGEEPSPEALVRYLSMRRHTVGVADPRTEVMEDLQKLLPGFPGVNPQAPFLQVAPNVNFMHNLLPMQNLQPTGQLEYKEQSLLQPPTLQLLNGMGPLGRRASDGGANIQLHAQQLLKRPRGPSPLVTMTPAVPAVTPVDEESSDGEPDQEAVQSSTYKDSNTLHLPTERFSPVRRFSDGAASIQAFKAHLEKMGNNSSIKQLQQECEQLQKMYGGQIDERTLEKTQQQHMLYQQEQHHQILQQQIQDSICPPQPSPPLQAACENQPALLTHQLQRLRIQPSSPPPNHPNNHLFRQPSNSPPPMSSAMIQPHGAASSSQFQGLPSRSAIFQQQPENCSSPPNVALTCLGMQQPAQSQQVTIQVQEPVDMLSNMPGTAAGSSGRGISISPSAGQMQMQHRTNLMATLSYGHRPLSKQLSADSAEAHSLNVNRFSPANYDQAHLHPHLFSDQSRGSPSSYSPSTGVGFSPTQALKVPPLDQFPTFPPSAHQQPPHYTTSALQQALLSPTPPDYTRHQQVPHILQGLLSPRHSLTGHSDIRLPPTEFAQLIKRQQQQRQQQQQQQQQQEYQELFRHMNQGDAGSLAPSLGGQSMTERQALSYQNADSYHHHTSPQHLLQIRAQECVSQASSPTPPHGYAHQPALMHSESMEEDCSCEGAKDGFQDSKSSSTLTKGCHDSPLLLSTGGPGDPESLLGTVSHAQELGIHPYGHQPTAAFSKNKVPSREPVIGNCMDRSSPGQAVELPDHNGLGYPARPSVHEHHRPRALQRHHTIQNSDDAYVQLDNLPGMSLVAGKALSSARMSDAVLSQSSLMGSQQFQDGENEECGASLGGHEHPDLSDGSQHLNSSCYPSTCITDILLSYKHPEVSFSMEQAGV
SIK2, sequence (Q9H0K1 whole entry): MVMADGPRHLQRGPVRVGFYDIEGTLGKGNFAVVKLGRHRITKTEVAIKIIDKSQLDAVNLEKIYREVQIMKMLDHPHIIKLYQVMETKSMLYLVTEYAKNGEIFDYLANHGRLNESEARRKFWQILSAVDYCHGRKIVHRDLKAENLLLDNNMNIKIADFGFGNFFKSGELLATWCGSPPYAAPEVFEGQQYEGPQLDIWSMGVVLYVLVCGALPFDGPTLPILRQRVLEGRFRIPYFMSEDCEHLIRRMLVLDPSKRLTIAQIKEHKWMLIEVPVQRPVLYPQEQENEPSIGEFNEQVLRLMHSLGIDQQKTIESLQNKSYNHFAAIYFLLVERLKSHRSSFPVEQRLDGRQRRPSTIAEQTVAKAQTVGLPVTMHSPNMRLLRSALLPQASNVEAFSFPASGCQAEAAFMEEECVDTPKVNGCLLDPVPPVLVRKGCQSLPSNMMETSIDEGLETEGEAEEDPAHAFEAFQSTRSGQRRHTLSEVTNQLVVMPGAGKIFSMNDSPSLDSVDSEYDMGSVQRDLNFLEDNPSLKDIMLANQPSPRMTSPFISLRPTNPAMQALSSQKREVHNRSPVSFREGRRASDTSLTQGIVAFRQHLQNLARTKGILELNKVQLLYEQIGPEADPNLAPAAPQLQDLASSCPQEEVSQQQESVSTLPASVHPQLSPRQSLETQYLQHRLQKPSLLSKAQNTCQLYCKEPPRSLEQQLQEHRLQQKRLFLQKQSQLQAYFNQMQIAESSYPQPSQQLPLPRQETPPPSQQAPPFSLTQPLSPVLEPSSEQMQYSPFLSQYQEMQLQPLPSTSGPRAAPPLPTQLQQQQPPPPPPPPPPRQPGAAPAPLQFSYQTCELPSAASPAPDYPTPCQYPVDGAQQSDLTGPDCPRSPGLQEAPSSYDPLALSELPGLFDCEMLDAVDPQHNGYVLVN

The term pIC50 denotes the negative decadic logarithm of the IC50, by convention in mol/L. Turning to `Cc1ccc(Nc2ccc3c(c2)ncn3-c2ccc(C(C)O)c(-n3nc(C(F)F)c(C)c3C)n2)nn1` (stereo not drawn) [Example 369, 1-[2-[3-(difluoromethyl)-4,5-dimethyl-pyrazol-1-yl]-6-[5-[(6-methylpyridazin-3-yl)amino]benzimidazol-1-yl]-3-pyridyl]ethanol], the pIC50 was 5.88 in experiment [1], 8.39 in experiment [2] and 8.09 in experiment [3].
For `CCc1cc(C(F)F)nn1-c1nc(-n2cnc3cc(Nc4ccc(C)nn4)ccc32)ccc1C(C)O` (stereo not drawn) [Example 370, 1-[2-[3-(difluoromethyl)-5-ethyl-pyrazol-1-yl]-6-[5-[(6-methylpyridazin-3-yl)amino]benzimidazol-1-yl]-3-pyridyl]ethanol] the same measures were 6.30, 8.70 and 8.15.
On to `Cc1cc(C(F)F)nn1-c1nc(-n2cnc3cc(F)c(Nc4ccc(Cl)nn4)cc32)ccc1C(C)O` (stereo not drawn) [Example 371, 1-[6-[6-[(6-chloropyridazin-3-yl)amino]-5-fluoro-benzimidazol-1-yl]-2-[3-(difluoromethyl)-5-methyl-pyrazol-1-yl]-3-pyridyl]ethanol], for which the pIC50 in experiment [1] is 6.84; in experiment [2], 6.36; in experiment [3] it was 7.07.
For the compound `Cc1cc(C(F)F)nn1-c1nc(-n2cnc3cc(Nc4ccc(Cl)nn4)c(F)cc32)ccc1C(C)O` (stereo not drawn) [Example 372, 1-[6-[5-[(6-chloropyridazin-3-yl)amino]-6-fluoro-benzimidazol-1-yl]-2-[3-(difluoromethyl)-5-methyl-pyrazol-1-yl]-3-pyridyl]ethanol], the pIC50 in experiment [1] is 5.91; in experiment [2], 8.44; in experiment [3], 8.07.
For `Cc1cc(OC(F)F)nn1-c1nc(-n2cnc3cc(Nc4cccnn4)c(F)cc32)ccc1[C@H](C)O` [Example 373, (1S)-1-[2-[3-(difluoromethoxy)-5-methyl-pyrazol-1-yl]-6-[6-fluoro-5-(pyridazin-3-ylamino)benzimidazol-1-yl]-3-pyridyl]ethanol] the same measures were 6.74, 9.15 and 9.10.
For `Cc1ccc(Nc2cc3ncn(-c4ccc([C@H](C)O)c(-n5nc(OC(F)F)cc5C)n4)c3cc2F)nn1` [Example 374, (1S)-1-[2-[3-(difluoromethoxy)-5-methyl-pyrazol-1-yl]-6-[6-fluoro-5-[(6-methylpyridazin-3-yl)amino]benzimidazol-1-yl]-3-pyridyl]ethanol], the figures for the negative logarithm of the IC50 (pIC50) in experiment [1], in experiment [2] and in experiment [3] were 7.06, 9.40 and 9.52, respectively.
Consider `Cc1ccc(Nc2cc3ncn(-c4ccc([C@@H](C)O)c(-n5nc(OC(F)F)cc5C)n4)c3cc2F)nn1` [Example 375, (1R)-1-[2-[3-(difluoromethoxy)-5-methyl-pyrazol-1-yl]-6-[6-fluoro-5-[(6-methylpyridazin-3-yl)amino]benzimidazol-1-yl]-3-pyridyl]ethanol], for which the pIC50 in experiment [1] was 6.00; in experiment [2], 8.06; in experiment [3] it was 8.22.
On to `Cc1nnc(Nc2cc3c(cc2F)ncn3-c2ccc(C(C)O)c(-n3nc(C#N)cc3C)n2)o1` (stereo not drawn) [Example 376, 1-[6-[5-fluoro-6-[(5-methyl-1,3,4-oxadiazol-2-yl)amino]benzimidazol-1-yl]-3-(1-hydroxyethyl)-2-pyridyl]-5-methyl-pyrazole-3-carbonitrile], for which the pIC50 in experiment [1] is 7.85; in experiment [2] it was 7.38; in experiment [3], 8.02.
As for `Cc1nnc(Nc2cc3ncn(-c4ccc(C(C)O)c(-n5nc(C#N)cc5C)n4)c3cc2F)o1` (stereo not drawn) [Example 377, 1-[6-[6-fluoro-5-[(5-methyl-1,3,4-oxadiazol-2-yl)amino]benzimidazol-1-yl]-3-(1-hydroxyethyl)-2-pyridyl]-5-methyl-pyrazole-3-carbonitrile], the pIC50 is 7.33 in experiment [1], 7.36 in experiment [2] and 7.50 in experiment [3].
